Source: US6875451B2, “Compositions and methods for the treatment of primary and metastatic neoplastic diseases using arsenic compounds” (PolaRx Biopharmaceuticals Inc., priority 1997, dated 2005)

What was measured:
Format in all cases: cell-based
KM12 = experiment: SRB growth assay, 2 days exposure, colon cancer
Description: (§1) Arsenic trioxide (1 mg/ml, 10 mg/ampoule, manufactured by Taylor Pharmaceuticals, Decatur, Ill.) was tested at five concentrations each at 10-fold dilutions, i.e., 10^−5, 10^−6, 10^−7, 10^−8 and 10^−9 μg/ml.
(§2) The in vitro tests were performed by incubating the test cells in the presence of the indicated concentration of arsenic trioxide under standard culture conditions for a designated period of time, which is followed by a sulforhodamine B (SRB) protein assay to estimate cell viability or growth. The cell lines are organized into subpanels according to the origin of the cell lines, e.g., leukemia, breast cancer, etc. A description of the cell lines and method of testing is described in Monk et al. (1997, Anticancer Drug Des. 12:533-41) and Weinstein et al., (1997, Science 275:343-9), which are incorporated herein in their entirety.
(§3) The measurement of an effect is expressed in Percentage Growth (PG). The measured effect of the compound on a cell line is calculated according to one or the other of the following two expressions: If (Mean ODtest−Mean ODzero)≧0. then PG=100×(Mean ODtest−Mean ODzero)/(Mean ODctrl−Mean ODzero) If (Mean ODtest−Mean ODzero)<0. then PG=100×(Mean ODtest−Mean ODzero)/(Mean ODzero where: • Mean ODzero=the average of optical density measurements of SRB-derived color just before exposure of cells to the test compounds; • Mean ODtest=the average of optical density measurements of SRB-derived color after exposure of cells to the test compound for a designated period of time; and • Mean ODctrl=the average of optical density measurements of SRB-derived color after with no exposure of cells to the test compound for a designated period of time
(§4) The first two columns describe the subpanel (e.g., leukemia) and cell line (e.g., CCRF-CEM) involved. The next two columns list the Mean ODzero and Mean ODctrl; the next five columns list the Mean ODtest for each of five different concentrations. Each concentration is expressed as the log10 (molar or μg/ml). The next five columns list the calculated PGs for each concentration. The response parameters GI50, TGI and LC50 are interpolated values representing the concentrations at which the PG is +50, 0, and −50, respectively. Sometimes these response parameters cannot be obtained by interpolation. If, for instance, all of the PGs in a given row exceed +50, then none of the three parameters can be obtained by interpolation. In such a case, the value given for each response parameter is the highest concentration tested and is preceded by a “>” sign. This practice is extended similarly to the other possible situations where a response parameter cannot be obtained by interpolation.
(§5) In the first set, the cells from 56 different cancer cell lines were exposed to five concentrations of arsenic trioxide continuously for two days prior to performing the SRB assay. In the second set, the cells from 50 different cell lines (a subset of the first 56 cell lines, plus the renal cancer cell line 786-0) were exposed continuously for six days prior to the SRB assay.

HCT-116 = experiment: SRB growth assay, 2 days exposure, colon cancer
Description: as §1, §2, §3, §4, §5

COLO 205 [1] = experiment: SRB growth assay, 2 days exposure, colon cancer
Description: as §1, §2, §3, §4, §5

HT29 = experiment: SRB growth assay, 2 days exposure, colon cancer
Description: as §1, §2, §3, §4, §5

HCT-15 = experiment: SRB growth assay, 2 days exposure, colon cancer
Description: as §1, §2, §3, §4, §5

SW-620 = experiment: SRB growth assay, 2 days exposure, colon cancer
Description: as §1, §2, §3, §4, §5

MCF7 = experiment: SRB growth assay, 6 days exposure, breast cancer; settings: MCF7, 6 days
Description: as §1, §2, §3, §4, §5

MDA-MB-231/ATCC = experiment: SRB growth assay, 6 days exposure, breast cancer
Description: as §1, §2, §3, §4, §5

BR-549 = experiment: SRB growth assay, 6 days exposure, breast cancer; settings: BT-549, 6 days
Description: as §1, §2, §3, §4, §5

COLO 205 [2] = experiment: SRB growth assay, 6 days exposure, colon cancer; settings: COLO 205, 6 days
Description: as §1, §2, §3, §4, §5

[3] = read-out: LC50 (the source's name)

arsenic trioxide
TGI (KM12): >0.0126 ng/mL | Percent Growth (KM12; log10 conc −4.9): 68% | Percent Growth (KM12; log10 conc −5.9): 99% | Percent Growth (KM12; log10 conc −6.9): 106% | Percent Growth (KM12; log10 conc −7.9): 98% | Percent Growth (KM12; log10 conc −8.9): 101% | TGI (HCT-116): >0.0126 ng/mL | Percent Growth (HCT-116; log10 conc −4.9): 30% | Percent Growth (HCT-116; log10 conc −5.9): 86% | Percent Growth (HCT-116; log10 conc −6.9): 93% | Percent Growth (HCT-116; log10 conc −7.9): 93% | Percent Growth (HCT-116; log10 conc −8.9): 95% | TGI (COLO 205 [1]): >0.0126 ng/mL | Percent Growth (COLO 205 [1]; log10 conc −4.9): 57% | Percent Growth (COLO 205 [1]; log10 conc −5.9): 104% | Percent Growth (COLO 205 [1]; log10 conc −6.9): 117% | Percent Growth (COLO 205 [1]; log10 conc −7.9): 102% | Percent Growth (COLO 205 [1]; log10 conc −8.9): 103% | TGI (HT29): >0.0126 ng/mL | Percent Growth (HT29; log10 conc −4.9): 15% | Percent Growth (HT29; log10 conc −5.9): 80% | Percent Growth (HT29; log10 conc −6.9): 100% | Percent Growth (HT29; log10 conc −7.9): 104% | Percent Growth (HT29; log10 conc −8.9): 112% | TGI (HCT-15): >0.0126 ng/mL | Percent Growth (HCT-15; log10 conc −4.9): 20% | Percent Growth (HCT-15; log10 conc −5.9): 93% | Percent Growth (HCT-15; log10 conc −6.9): 104% | Percent Growth (HCT-15; log10 conc −7.9): 100% | Percent Growth (HCT-15; log10 conc −8.9): 113% | TGI (SW-620): >0.0126 ng/mL | Percent Growth (SW-620; log10 conc −4.9): 16% | Percent Growth (SW-620; log10 conc −5.9): 85% | Percent Growth (SW-620; log10 conc −6.9): 96% | Percent Growth (SW-620; log10 conc −7.9): 98% | Percent Growth (SW-620; log10 conc −8.9): 102% | TGI (MCF7): 3.66E−06 | Mean Optical Densities (MCF7; Log 10 Concentration −4.9): 0.008 | Percent Growth (MCF7; Log 10 Concentration −4.9): −73% | Mean Optical Densities (MCF7; Log 10 Concentration −5.9): 1.683 | Percent Growth (MCF7; Log 10 Concentration −5.9): 63% | Mean Optical Densities (MCF7; Log 10 Concentration −6.9): 2.603 | Percent Growth (MCF7; Log 10 Concentration −6.9): 98% | Mean Optical Densities (MCF7; Log 10 Concentration −7.9): 2.611 | Percent Growth (MCF7; Log 10 Concentration −7.9): 99% | Mean Optical Densities (MCF7; Log 10 Concentration −8.9): 2.647 | Percent Growth (MCF7; Log 10 Concentration −8.9): 100% | TGI (MDA-MB-231/ATCC): 3.18E−06 | Mean Optical Densities (MDA-MB-231/ATCC; Log 10 Concentration −4.9): −0.001 | Percent Growth (MDA-MB-231/ATCC; Log 10 Concentration −4.9): −100% | Mean Optical Densities (MDA-MB-231/ATCC; Log 10 Concentration −5.9): 0.563 | Percent Growth (MDA-MB-231/ATCC; Log 10 Concentration −5.9): 67% | Mean Optical Densities (MDA-MB-231/ATCC; Log 10 Concentration −6.9): 0.771 | Percent Growth (MDA-MB-231/ATCC; Log 10 Concentration −6.9): 102% | Mean Optical Densities (MDA-MB-231/ATCC; Log 10 Concentration −7.9): 0.764 | Percent Growth (MDA-MB-231/ATCC; Log 10 Concentration −7.9): 101% | Mean Optical Densities (MDA-MB-231/ATCC; Log 10 Concentration −8.9): 0.759 | Percent Growth (MDA-MB-231/ATCC; Log 10 Concentration −8.9): 100% | GI50 (BR-549): 2.22 µM | TGI (BR-549): 4.24E−06 | Mean Optical Densities (BR-549; Log 10 Concentration −4.9): 0.018 | Percent Growth (BR-549; Log 10 Concentration −4.9): −84% | Mean Optical Densities (BR-549; Log 10 Concentration −5.9): 1.697 | Percent Growth (BR-549; Log 10 Concentration −5.9): 94% | Mean Optical Densities (BR-549; Log 10 Concentration −6.9): 1.963 | Percent Growth (BR-549; Log 10 Concentration −6.9): 110% | Mean Optical Densities (BR-549; Log 10 Concentration −7.9): 1.940 | Percent Growth (BR-549; Log 10 Concentration −7.9): 108% | Mean Optical Densities (BR-549; Log 10 Concentration −8.9): 1.876 | Percent Growth (BR-549; Log 10 Concentration −8.9): 105% | CC50 (BR-549; [3]): 8.08 µM | TGI (COLO 205 [2]): >1.26E−05 | Mean Optical Densities (COLO 205 [2]; Log 10 Concentration −4.9): 0.024 | Percent Growth (COLO 205 [2]; Log 10 Concentration −4.9): 0% | Mean Optical Densities (COLO 205 [2]; Log 10 Concentration −5.9): 1.404 | Percent Growth (COLO 205 [2]; Log 10 Concentration −5.9): 59% | Mean Optical Densities (COLO 205 [2]; Log 10 Concentration −6.9): 2.283 | Percent Growth (COLO 205 [2]; Log 10 Concentration −6.9): 97% | Mean Optical Densities (COLO 205 [2]; Log 10 Concentration −7.9): 2.026 | Percent Growth (COLO 205 [2]; Log 10 Concentration −7.9): 86% | Mean Optical Densities (COLO 205 [2]; Log 10 Concentration −8.9): 2.308 | Percent Growth (COLO 205 [2]; Log 10 Concentration −8.9): 98% | CC50 (COLO 205 [2]; [3]): > 12.6 µM
